Test results as given in patent US8039639B2, “Kinase inhibitors and methods of use thereof” (Array BioPharma Inc., priority 2006, dated 2011).

Columns and labels:
Abl (T315I) = Abl (T315I) (Homo sapiens, UniProt P00519, T315I); experiment: protein kinase IC50 determination (ATP at Km); assay type: biochemical; conditions: ATP concentration at Km
VEGFR = VEGFR (Homo sapiens, UniProt P35968); experiment: protein kinase IC50 determination (ATP at Km); assay type: biochemical; conditions: ATP concentration at Km
Chain of VEGFR (P35968 20-1356): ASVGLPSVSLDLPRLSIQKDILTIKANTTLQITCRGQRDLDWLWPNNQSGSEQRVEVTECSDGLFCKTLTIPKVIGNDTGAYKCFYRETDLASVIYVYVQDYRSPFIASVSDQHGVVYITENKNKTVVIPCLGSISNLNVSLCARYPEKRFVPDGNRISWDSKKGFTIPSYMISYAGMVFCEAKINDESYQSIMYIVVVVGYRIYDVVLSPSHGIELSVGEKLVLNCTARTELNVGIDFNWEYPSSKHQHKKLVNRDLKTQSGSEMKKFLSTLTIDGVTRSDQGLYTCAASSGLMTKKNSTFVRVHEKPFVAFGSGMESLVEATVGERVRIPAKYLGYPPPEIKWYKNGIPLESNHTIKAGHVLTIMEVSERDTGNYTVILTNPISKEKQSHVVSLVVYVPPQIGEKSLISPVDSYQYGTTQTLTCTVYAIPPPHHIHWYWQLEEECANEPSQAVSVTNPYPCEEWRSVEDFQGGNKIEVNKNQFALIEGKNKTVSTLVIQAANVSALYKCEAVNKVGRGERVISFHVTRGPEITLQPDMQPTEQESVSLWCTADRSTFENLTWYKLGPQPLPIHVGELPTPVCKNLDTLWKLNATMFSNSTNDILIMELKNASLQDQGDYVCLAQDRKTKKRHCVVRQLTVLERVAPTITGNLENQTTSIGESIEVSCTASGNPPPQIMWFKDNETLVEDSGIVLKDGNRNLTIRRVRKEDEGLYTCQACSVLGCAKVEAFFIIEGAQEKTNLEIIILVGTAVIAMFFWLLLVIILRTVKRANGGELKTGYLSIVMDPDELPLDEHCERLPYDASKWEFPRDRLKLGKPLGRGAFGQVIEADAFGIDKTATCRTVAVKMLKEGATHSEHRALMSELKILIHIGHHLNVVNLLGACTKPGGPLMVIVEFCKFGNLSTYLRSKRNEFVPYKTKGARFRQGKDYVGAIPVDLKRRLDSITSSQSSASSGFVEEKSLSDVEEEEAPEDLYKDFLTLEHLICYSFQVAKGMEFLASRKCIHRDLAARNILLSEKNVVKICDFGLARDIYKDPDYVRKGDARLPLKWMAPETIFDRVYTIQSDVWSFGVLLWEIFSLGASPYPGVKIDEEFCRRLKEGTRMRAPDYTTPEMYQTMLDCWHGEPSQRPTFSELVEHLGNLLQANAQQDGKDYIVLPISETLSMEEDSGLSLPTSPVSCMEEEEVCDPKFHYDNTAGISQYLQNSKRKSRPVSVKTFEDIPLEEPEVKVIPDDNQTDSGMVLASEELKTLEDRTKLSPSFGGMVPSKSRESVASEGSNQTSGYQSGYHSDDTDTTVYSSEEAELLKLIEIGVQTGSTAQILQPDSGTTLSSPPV

p38 pathway = experiment: HeLa cell phospho-HSP27 assay, anisomycin-stimulated; assay type: cell-based; conditions: Homo sapiens; HeLa cells, 60 min pretreatment, 1 μg/mL anisomycin 60 min; read-out: apparent IC50, p38 pathway in cells (phospho-HSP27 Ser78)
From the text: Cells were labeled with antibodies against the phosphorylated form of HSP27 (Ser78) and GAPDH as a normalization control. Cells were imaged and quantified using a LI-COR Aeriustm imager.

Erk and AKT = experiment: phospho-Erk and phospho-AKT in Ang-1 stimulated HUVECs; assay type: cell-based; conditions: Homo sapiens, HUVEC, 10 min, 200 ng/mL Ang-1 for 10 minutes, read-out: IC50, downstream effectors Erk and AKT
From the text: (§1) Tie2 was then immunopurified (IP) and immunoblotted with anti-phosphotyrosine (pTyr) and anti-Tie2 antibodies to assess the degree of Tie2 autophosphorylation. Lysates were immunoblotted with anti-phospho-Erk and anti-phospho-AKT (Ser473) antibodies, respectively. Signals were quantified and normalized to GAPDH as a loading control. The results were shown in an immunoblot and a graph.

K562 = K562 cell viability (CellTiter Blue); assay type: cell-based; conditions: Homo sapiens; K562, 72 hours
From the text: Cell viability was subsequently measured using CellTiter Blue (Promega) to determine IC50 values for each compound.

CYP3A4 = biological target: T1, CYP3A4 (Homo sapiens, UniProt P08684); experiment: CYP inhibition assay (LC/MS, pooled human liver microsomes); assay type: in vitro ADME; conditions: n=1
T1 construct: using pooled human liver microsomes (n=1); from tissue; host or cells: pooled human liver microsomes
T1 sequence (P08684 whole entry): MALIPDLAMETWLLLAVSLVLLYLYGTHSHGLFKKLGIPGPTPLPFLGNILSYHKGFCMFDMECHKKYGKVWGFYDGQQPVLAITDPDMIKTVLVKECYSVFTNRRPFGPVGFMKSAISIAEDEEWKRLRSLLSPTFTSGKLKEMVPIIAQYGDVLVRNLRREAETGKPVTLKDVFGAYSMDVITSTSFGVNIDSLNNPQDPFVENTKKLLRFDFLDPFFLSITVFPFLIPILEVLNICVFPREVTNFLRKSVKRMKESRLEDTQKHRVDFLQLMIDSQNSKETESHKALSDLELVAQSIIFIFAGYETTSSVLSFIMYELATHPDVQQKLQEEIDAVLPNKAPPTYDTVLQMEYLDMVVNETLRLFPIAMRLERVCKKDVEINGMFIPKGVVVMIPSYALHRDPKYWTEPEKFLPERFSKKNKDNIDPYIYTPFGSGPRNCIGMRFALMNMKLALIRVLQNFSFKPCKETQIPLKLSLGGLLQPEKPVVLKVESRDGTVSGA

CYP2C9 = biological target: T2, CYP2C9 (Homo sapiens, UniProt P11712); experiment: as above; assay type: in vitro ADME; conditions: n=1
T2 construct: using pooled human liver microsomes (n=1); from tissue; host or cells: pooled human liver microsomes
T2 sequence (P11712 whole entry): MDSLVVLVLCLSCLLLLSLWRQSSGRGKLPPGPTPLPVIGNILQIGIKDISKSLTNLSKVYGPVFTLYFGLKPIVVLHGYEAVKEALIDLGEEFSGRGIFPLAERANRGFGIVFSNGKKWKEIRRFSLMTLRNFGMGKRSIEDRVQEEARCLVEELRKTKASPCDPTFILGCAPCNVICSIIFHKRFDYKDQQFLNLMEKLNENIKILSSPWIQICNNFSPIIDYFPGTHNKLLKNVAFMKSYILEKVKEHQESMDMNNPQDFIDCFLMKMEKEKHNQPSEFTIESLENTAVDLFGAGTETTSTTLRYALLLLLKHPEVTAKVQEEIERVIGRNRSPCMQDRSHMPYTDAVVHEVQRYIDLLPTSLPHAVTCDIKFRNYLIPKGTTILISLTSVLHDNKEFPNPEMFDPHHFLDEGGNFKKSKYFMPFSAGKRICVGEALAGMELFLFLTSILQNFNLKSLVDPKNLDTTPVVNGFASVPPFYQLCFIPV

CYP1A2 = CYP1A2 (Homo sapiens, UniProt P05177); experiment: CYP inhibition assay (fluorescent probe, recombinant protein); assay type: in vitro ADME; conditions: n=1
sodium channel (site 2) = experiment: Off-target ligand displacement assay, panel of 28 receptors, ion channels and transporters; assay type: binding; conditions: at 10 μM; only hit among 28 entities screened
hERG = hERG (Homo sapiens, UniProt Q12809); experiment: hERG patch clamp; assay type: cell-based; conditions: at 10 μM
Chain of hERG (Q12809 whole entry): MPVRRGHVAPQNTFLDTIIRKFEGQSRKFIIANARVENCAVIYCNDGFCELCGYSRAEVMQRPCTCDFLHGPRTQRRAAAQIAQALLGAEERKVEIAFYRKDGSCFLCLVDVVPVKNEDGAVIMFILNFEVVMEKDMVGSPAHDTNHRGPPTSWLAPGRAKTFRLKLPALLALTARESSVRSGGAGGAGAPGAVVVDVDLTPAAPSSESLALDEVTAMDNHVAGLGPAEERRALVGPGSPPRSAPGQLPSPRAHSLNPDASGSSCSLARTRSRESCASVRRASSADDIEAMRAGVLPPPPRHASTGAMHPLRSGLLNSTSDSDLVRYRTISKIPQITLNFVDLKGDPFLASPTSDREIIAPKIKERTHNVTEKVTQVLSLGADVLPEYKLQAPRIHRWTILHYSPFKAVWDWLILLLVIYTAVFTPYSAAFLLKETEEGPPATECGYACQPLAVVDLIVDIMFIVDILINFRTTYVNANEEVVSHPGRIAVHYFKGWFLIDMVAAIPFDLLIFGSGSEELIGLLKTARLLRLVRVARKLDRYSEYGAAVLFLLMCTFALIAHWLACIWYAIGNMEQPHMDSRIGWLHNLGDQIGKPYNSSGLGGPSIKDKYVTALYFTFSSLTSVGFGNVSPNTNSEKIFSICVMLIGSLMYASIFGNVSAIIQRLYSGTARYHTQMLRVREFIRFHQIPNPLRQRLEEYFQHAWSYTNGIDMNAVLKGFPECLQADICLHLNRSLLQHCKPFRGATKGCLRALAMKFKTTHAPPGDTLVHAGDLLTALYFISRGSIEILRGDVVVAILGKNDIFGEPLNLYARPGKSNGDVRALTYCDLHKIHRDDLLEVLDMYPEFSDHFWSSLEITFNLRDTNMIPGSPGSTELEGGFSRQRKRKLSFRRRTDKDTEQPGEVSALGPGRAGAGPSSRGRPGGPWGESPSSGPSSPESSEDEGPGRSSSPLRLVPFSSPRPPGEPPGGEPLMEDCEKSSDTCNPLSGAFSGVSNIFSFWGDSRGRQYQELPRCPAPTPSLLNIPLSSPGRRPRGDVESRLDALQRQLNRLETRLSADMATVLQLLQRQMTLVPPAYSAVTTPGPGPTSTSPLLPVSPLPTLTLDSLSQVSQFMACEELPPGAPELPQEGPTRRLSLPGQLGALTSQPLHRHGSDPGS
Description: hERG assay was performed using a standard patch clamp protocol. AMES assay (bacterial reverse mutation assay) was performed according to protocol. […] In vitro and in vivo micronucleus assays were performed according to protocol.

[1] = tested on: bFGF-induced angiogenesis; experiment: bFGF matrigel plug angiogenesis in vivo; set-up: species or system Female CD-1 mice; conditions: PO, BID×7, dosed as prodrug Compound 74
Description: Female CD-1 mice (19-22 g), n=4 per treatment group, were implanted subcutaneously with 500 μL growth factor reduced matrigel containing 1500 ng/mL bFGF or 0 ng/mL bFGF as a negative control. Test compounds were administered by oral gavage at the indicated doses and schedules. […] Sutent is an inhibitor of KDRand served as a positive drug control in this study. Animals were euthanized on day 7. Matrigel was harvested, weighed and homogenized in phosphate buffered saline, pH 7.4. Samples were centrifuged and the resulting lysate analyzed for hemoglobin concentration by colorimetric reaction.

K562 cells = experiment: K562 subcutaneous tumor model (BCR-Abl-driven tumors); assay type: in vivo, Female Scid-beige mice; conditions: for % Regression / Complete responses: K562 tumors, PO ×7, dosed as Compound 74; for Complete responses: n=8
Description: Test compounds were administered by oral gavage at the indicated doses and schedules when tumors reached 200±50 mm^3 in size. […] Tumor size and body weight were monitored throughout the study.

RPMI 8226 cells = experiment: RPMI 8226 multiple myeloma tumor model; assay type: in vivo, Female Scid-beige mice
Description: Female Scid-beige mice (17-20 g), n=8 per group, were implanted with 15×10^6 RPMI 8226 cells subcutaneously on the right flank with either vehicle (20% Trappsol, 10 mL/kg, PO, BID×14) or Compound 74 (100 mg/kg active drug, PO, BID×14). Test compounds were administered by oral gavage at the indicated doses and schedules when tumors reached 200±50 mm^3 in size.

Tie2 = Tie2 (Homo sapiens, UniProt Q02763); experiment: Tie2 autophosphorylation in Ang-1 stimulated HUVECs; assay type: cell-based; set-up: endogenous in cells; host or cells: HUVEC; conditions: 200 ng/mL Ang-1 for 10 minutes
Chain of Tie2 (Q02763 23-1124): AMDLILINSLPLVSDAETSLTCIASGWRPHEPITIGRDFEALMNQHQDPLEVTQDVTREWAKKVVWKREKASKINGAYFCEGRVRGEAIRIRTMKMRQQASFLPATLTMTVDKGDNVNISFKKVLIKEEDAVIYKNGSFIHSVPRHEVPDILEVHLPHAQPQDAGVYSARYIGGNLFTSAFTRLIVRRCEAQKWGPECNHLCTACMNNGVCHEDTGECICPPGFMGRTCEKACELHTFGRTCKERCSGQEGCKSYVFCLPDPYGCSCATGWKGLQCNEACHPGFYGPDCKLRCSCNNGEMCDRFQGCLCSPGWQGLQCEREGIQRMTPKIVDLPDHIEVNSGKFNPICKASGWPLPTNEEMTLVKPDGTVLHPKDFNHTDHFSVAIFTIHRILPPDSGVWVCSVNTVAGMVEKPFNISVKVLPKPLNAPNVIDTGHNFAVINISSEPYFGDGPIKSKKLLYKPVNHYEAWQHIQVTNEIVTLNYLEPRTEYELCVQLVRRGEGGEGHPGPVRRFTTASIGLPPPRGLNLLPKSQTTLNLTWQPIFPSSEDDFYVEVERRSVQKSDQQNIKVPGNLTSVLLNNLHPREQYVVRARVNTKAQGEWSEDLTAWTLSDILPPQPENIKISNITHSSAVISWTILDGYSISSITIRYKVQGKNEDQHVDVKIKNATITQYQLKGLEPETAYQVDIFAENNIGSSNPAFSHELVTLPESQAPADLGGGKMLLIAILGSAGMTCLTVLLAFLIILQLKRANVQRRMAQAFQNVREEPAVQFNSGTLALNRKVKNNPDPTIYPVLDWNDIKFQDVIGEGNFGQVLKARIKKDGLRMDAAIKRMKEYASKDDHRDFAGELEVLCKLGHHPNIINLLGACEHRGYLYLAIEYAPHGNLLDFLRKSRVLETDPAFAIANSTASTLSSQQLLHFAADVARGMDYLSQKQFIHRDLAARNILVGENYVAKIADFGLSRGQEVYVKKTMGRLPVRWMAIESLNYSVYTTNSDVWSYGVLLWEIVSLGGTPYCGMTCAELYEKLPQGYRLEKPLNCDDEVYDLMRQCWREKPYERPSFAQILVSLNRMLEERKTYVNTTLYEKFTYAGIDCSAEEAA
From the text: as §1

Cc1ccc(-n2nc(C(C)(C)C)cc2NC(=O)NCc2cc(F)ccc2Oc2ccc3c(cnn3CCO)c2)cc1 [Compound 72, 1-(3-tert-butyl-1-p-tolyl-1H-pyrazol-5-yl)-3-(5-fluoro-2-(1-(2-hydroxyethyl)-1H-indazol-5-yloxy)benzyl)urea]
IC50 (Abl (T315I)): 68 nM
IC50 (VEGFR): 74 nM
IC50 (p38 pathway): 2 nM
IC50 (Erk and AKT): < 11 nM
IC50 (K562): 62 nM
IC50 (CYP3A4; substrate Midazolam): ~8000 nM
IC50 (CYP3A4; substrate Testosterone): ~10000 nM
IC50 (CYP2C9): 5000 nM
IC50 (CYP1A2): 25000 nM
ligand displacement, sodium channel (site 2) (sodium channel (site 2)): > 50%
hERG Patch Clamp Inhibition (hERG): 64% Inhibition at 10 μM
inhibition of bFGF-induced angiogenesis (matrigel hemoglobin) ([1]; mice, 100 mg/kg active drug, p<0.05): 72%
bFGF-induced angiogenesis, dose response ([1]; mice, 10, 30 or 100 mg/kg active drug): inhibited bFGF-induced angiogenesis in a dose-dependent manner
body weight loss (K562 cells; K562 tumor-bearing Scid-beige mice, throughout the course of treatment): less than 10%
% Regression (K562 cells; 30 mg/kg BID): Stasis
Complete responses (K562 cells; 30 mg/kg BID): 0/8
% Regression (K562 cells; 100 mg/kg BID): 93%
Complete responses (K562 cells; 100 mg/kg BID): 5/8
% Regression (K562 cells; 100 mg/kg QD): Stasis
Complete responses (K562 cells; 100 mg/kg QD): 0/8
body weight loss (RPMI 8226 cells; RPMI 8226 tumor-bearing Scid-beige mice, throughout treatment): less than 10%
effect on tumor growth (RPMI 8226 cells; RPMI 8226 tumors, 100 mg/kg PO, BID×14, dosed as Compound 74): statistically significant effect on tumor growth
% Tumor growth inhibition (TGI) (RPMI 8226 cells; RPMI 8226 tumors, 100 mg/kg active drug, PO, BID×14, dosed as Compound 74): 67%
IC50 (Tie2): < 33 nM
